Experimental data from patent publication US11872230B2, “Method of treating a methionine-dependent cancer” (Agency for Science, Technology and Research, priority 2018, dated 2024).
“Also recorded” adds a separate entry of the source.

How the values were obtained:
TS cells (lung TICs) = assay: Intraperitoneal administration to NSG mice subcutaneously implanted with lung TICs; format: in vivo; details: FIDAS5 40 mg/kg i.p., three consecutive days, after 6 weeks
Description: 5×10^5 single cells were mixed in a 1:1 mixture of serum free DMEM/F12 and Matrigel (BD) and injected subcutaneously into the flanks of 4-6 week old male and female NOD.Cg-Prkdc^scid Il2rg^tm1wjl SzJ (Jackson Laboratories). About 6 weeks later, or when tumor sizes exceed 2 cm in length, mice were sacrificed and tumors harvested for analysis. All animal experiments were approved by the Agency for Science Technology and Research Singapore—Biological Resource Centre. Mice were randomized by sex.
Since FIDAS5 appeared to more specifically disrupt the methionine cycle and inhibit cellular methylation activities compared to D9, it was sought to test whether its systemic delivery could impact the tumorigenic potential of TS cells. These highly tumorigenic cells were first subcutaneously implanted into NSG mice and FIDAS5 (40 mg/kg) or corn oil carrier was immediately administered via intraperitoneal injection for three consecutive days. After 6 weeks, mice transiently treated with FIDAS5 produced tumors that were much smaller than carrier-treated controls. […] To exclude the possibility of general cytotoxicity associated with the inhibitor on TS cells, TS cell-implanted NSG mice were treated with cisplatin (4 mg/kg), a frontline chemotherapeutic agent that broadly target bulk cancer cells in NSCLC tumors, in the same manner (FIG. 5i). […]

[1] = system: triple-negative breast cancer (TNBC) cells incl. BC2.2; assay: Sensitivity of triple-negative breast cancer cells to MAT2A inhibition; format: cell-based; details: in particular chemotherapy resistant BC2.2
[2] = system: histone methylation in TS cells; assay: Western blot of methylated histones in TS cells; format: cell-based, human; details: TS cells exposed transiently (48 h) to inhibitor
Method: (§1) 1.5×10^6 cells were lysed in Llaemli-SDS buffer and then sonicated. Total protein concentration was measured by Bradford assay. Total cell lysates were separated by SDS-PAGE and transferred onto nitrocellulose, followed by blocking in 5% (v/v) milk in Tris-buffered saline in Tween 20, probing with the indicated antibodies and visualized by chemiluminescence (Roche). Primary antibodies used were anti-β-Actin (sc-47778), anti-GAPDH (sc-32233) from Santa Cruz: anti-GLDC (ab97625), anti-H3 (ab1791), anti-H3 (dimethylK36) (ab9049), anti-MAT2A (ab77471), anti-MTR (ab9209), anti-H3 (trimethylK79) (ab2621), anti-MTHFR (ab125707), anti-MTAP (ab ab55517) from Abcam; anti-H3(trimethyl K4) (39159), anti-H3(trimethyl K27)(39155), anti-H3(trimethylK36)(61101) and anti-H3(trimethylK9)(39765) from Active Motif; anti-β-catenin (BD610154) from BD Biosciences; anti-SHMT2 (HPA020549) and anti-SAHH (WH0000191M8) from Sigma; anti-Symmetric Di-Methyl Arginine Motif (13222) from CST.
To evaluate the methionine cycle as a therapeutic target in lung TICs, small molecule inhibitors that target enzymes within this pathway were employed, mimicking the effects of short-term methionine starvation (FIG. 5a). two inhibitors known to perturb methionine cycle activity and cellular methylation levels: 1) MAT2A inhibitor, FIDAS5; and 2) SAHH inhibitor, D9, which is an analog of DZNep. In a manner similar to amino acid starvation studies, TS cells were exposed transiently to the compounds for 48 h in culture and were immediately used for downstream tumorigenesis assays.

TS cells [3] = assay: Orthotopically implanted GFP-expressing TS cells in lungs of NSG mice; format: in vivo; details: orthotopic TS cells, transient treatment for 3 days, 5 weeks post implantation
Description: GFP expressing 1.5×10^6 single TS cells (transduced with PLL3.7 vector) with suspended in tumor sphere media and injected intravenously through tail-vein into 4-6 week old male and female NOD.Cg-Prkdc^scid Il2rg^tm1wjl SWJ (Jackson Laboratories) mice. Mice were continuously monitored and then sacrificed at 5 weeks post injection. Lungs were harvested, fixed in 4% paraformaldehyde and embedded in paraffin for subsequent analysis. Anti-GFP (ab13970) antibody from Abcam and Alexa-Fluor Goat 488 anti-Chicken antibody (A-11039; ThermoFisher) was used to visualize and quantify GFP-positive lesions using immunofluorescence protocol outlined above. Mice were randomized by sex.
Since FIDAS5 appeared to more specifically disrupt the methionine cycle and inhibit cellular methylation activities compared to D9, it was sought to test whether its systemic delivery could impact the tumorigenic potential of TS cells. These highly tumorigenic cells were first subcutaneously implanted into NSG mice and FIDAS5 (40 mg/kg) or corn oil carrier was immediately administered via intraperitoneal injection for three consecutive days. After 6 weeks, mice transiently treated with FIDAS5 produced tumors that were much smaller than carrier-treated controls. […]

[4] = system: histone methylation in Adh cells; assay: Western blot of methylated histones in Adh cells; format: cell-based, human; details: FIDAS5 treatment
Method: as §1

[5] = system: histone methylation in NIH 3T3 cells; assay: Western blot of methylated histones in NIH 3T3 cells; format: cell-based; details: FIDAS5 treatment
Method: as §1

TS cells [6] = assay: Cell proliferation assay (CellTiter-Glo) of TS cells; format: cell-based, human
Method: Cells were seeded into 96-well plates at a density of 2,000 cells/well for TS cells and 500 cells/well for Adh cells. The relative number of viable cells was determined by the quantification of ATP using the CellTiter-Glo Luminescent Cell Viability Assay (Promega) system.

## CNc1ccc(/C=C/c2c(F)cccc2Cl)cc1 [FIDAS5]
TS cells (lung TICs)
  tumor size vs carrier-treated controls: much smaller
[1]
  effect on TNBC cells: displayed sensitivity; also recorded: effective
[2]
  histone methylation levels: complete ablation
TS cells [3]
  number of pulmonary lesions: decreased number of pulmonary lesions
[4]
  histone methylation marks: did not demonstrate reduction in histone methylation marks
[5]
  histone methylation marks: did not demonstrate reduction in histone methylation marks
TS cells [6]; TS cells exposed to FIDAS5 for six days, then medium without FIDAS5
  growth capacity: completely ablated
TS cells [6]; TS cells, transient 48 h exposure then complete media
  long-term proliferation ability: did not negatively impact
